{"source": "patent US12528838B2", "about": "“Cyclic dominant negative competence stimulating peptide analogs and methods of treating Streptococcus pneumoniae infections” (priority 2019, dated 2026)", "key": {"[1]": {"assay": "Stability in mouse lungs (BAL fluid analysed by HPLC after intratracheal instillation)", "format": "in vivo, CD1 mice", "settings": "both sexes, CD1, cell-free bronchoalveolar lavage fluid (BALF), inhaled or intranasal, 400 ug, 400 μg intratracheally, FIG. 14B", "procedure": "(§1) FIGS. 14A-14D. Pharmacological properties of dnCSPs. (FIG. 14A) CSPs were treated with trypsin/chymotrypsin and their degradation monitored by HPLC. (FIG. 14B) CD1 mice (3/cohort, males & females) were intratracheally instilled 400 μg of native or dnCSPs. Mice were bronchial alveolar lavaged (BAL) at indicated times, and cell free BAL fluid (BALF) were analyzed by HPLC. […] (FIGS. 14C-14D) CD1 mice (5/cohorts, males & females) were intratracheally inoculated with MTD doses of native and dnCSPs (200 μg-20 mg/kg). […] Lung sections (FIGS. 14C-14D) and other organs were H&E stained. b=bronchioles; v=vessels."}, "[2]": {"assay": "Proteolytic stability in trypsin/chymotrypsin solution, monitored by RP-HPLC", "format": "in vitro ADME", "procedure": "FIG. 4E. […] All peptides were treated with trypsin/chymotrypsin (0.05 μg mL-1 enzyme concentration). RP-HPLC was used to monitor the progress of degradation. All peptides have a half-life about 3 hours. After 3 to 4 hours, some degradation product of CSP1-cyc-E1A(Dap6E10) start to precipitate out, resulting in the plateau in the curve.\nas §1\nThe proteolytic stability of CSP1-E1A-cyc(Dap6E10) in Trypsin and Chymotrypsin solution was tested and the half-life measured. […] To test that, CSP1-E1A-des-K16K17-cyc(Dap6E10) was manually synthesized and evaluated its activity.\nPharmacological evaluation of lead cyclic dnCSPs. Before moving the most promising dnCSPs into mouse models, their pharmacological properties will be evaluated. As these are peptide-based drugs, first assessed are their metabolic stability. These assays will include prolonged incubation in physiologically-relevant buffers with varying pH values, stability towards degradation by trypsin and chymotrypsin, and stability in mouse lungs, plasma and serum to simulate in vivo proteolytic environments. Degradation of dnCSPs will be quantified using HPLC. […] The MTD will be defined as the maximum dose that causes a 15% loss of initial weight. […] Systemic toxicity will be assessed by performing blood chemistry and complete blood count (CBC) with differential. Major organs (e.g., liver, kidney, heart, lung, etc.) and sternum (to test genotoxicity) will be collected for histopathological and toxicological analysis. […]"}, "[3]": {"target": "ComD2 receptor (Streptococcus pneumoniae serotype 4, UniProt A0A0H2US84)", "sequence (A0A0H2US84 entry or part of it)": "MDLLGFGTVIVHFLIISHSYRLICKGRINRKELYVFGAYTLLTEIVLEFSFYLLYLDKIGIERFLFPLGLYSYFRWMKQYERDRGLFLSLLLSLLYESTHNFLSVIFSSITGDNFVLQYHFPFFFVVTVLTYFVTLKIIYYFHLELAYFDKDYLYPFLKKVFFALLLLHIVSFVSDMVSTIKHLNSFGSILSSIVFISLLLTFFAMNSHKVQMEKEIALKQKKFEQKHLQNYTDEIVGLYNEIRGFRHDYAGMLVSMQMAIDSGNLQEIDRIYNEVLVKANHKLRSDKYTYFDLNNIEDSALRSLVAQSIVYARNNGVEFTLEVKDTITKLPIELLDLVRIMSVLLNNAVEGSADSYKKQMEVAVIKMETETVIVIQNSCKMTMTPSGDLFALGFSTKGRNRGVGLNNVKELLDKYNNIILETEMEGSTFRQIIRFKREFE", "assay": "cell-based", "format": "cell-based", "source_text": "Biological evaluation of cyclic dnCSPs. […] All assays will be performed in triplicates and independently three times. Serial dilutions of dnCSPs will be conducted to determine the EC50 and IC50 values of promising dnCSPs through initial screening. Data from reporter assays will be analyzed using the GraphPad Prism software. The lead dnCSPs will be assessed for their therapeutic potential using multiple in vitro assays, including attenuation of ComX-induction (reporter systems), genetic transformation, allolysis (zymogram assays), and release of PLY (hemolysis & Western blots). Lastly, the pneumococcal competence system regulates biofilm formation, which is important for the pathogenesis of […]. The ability of the dnCSPs to inhibit biofilm formation will be evaluated after 24 hr of growth on 1% BSA coated coverslips placed in flat-bottom polystyrene tissue culture plates by staining with FilmTracer LIVE/DEAD Biofilm viability kit (Invitrogen, L10316), and visualized using a confocal microscope and Z-stacked to construct 3D-images."}, "[4]": {"target": "ComD1 receptor (Streptococcus pneumoniae serotype 2, UniProt A0A0H2ZM50)", "sequence (A0A0H2ZM50 entry or part of it)": "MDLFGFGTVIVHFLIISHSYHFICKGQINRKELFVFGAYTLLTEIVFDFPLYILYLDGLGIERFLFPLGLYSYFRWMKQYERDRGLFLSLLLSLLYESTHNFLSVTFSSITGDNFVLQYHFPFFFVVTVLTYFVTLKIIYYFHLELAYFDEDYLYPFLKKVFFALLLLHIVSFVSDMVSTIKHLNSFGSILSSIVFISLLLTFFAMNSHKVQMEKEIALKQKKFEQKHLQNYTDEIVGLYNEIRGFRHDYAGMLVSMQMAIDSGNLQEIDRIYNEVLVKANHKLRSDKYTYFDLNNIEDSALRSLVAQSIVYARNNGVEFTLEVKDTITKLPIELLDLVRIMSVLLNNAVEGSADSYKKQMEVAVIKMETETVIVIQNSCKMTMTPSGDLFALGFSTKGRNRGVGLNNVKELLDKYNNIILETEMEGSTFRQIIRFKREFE", "assay": "cell-based", "format": "cell-based", "source_text": "Biological evaluation of cyclic dnCSPs. The cyclic dnCSPs will be assessed for inhibition of competence induction using the β-gal, lux (FIG. 11) or luc (FIG. 15) reporter systems we have optimized for the analysis of a large number of signal variants in 96-well plates. All assays will be performed in triplicates and independently three times. Serial dilutions of dnCSPs will be conducted to determine the EC50 and IC50 values of promising dnCSPs through initial screening. Data from reporter assays will be analyzed using the GraphPad Prism software. The lead dnCSPs will be assessed for their therapeutic potential using multiple in vitro assays, including attenuation of ComX-induction (reporter systems), genetic transformation, allolysis (zymogram assays), and release of PLY (hemolysis & Western blots). Lastly, the pneumococcal competence system regulates biofilm formation, which is important for the pathogenesis of […]. The ability of the dnCSPs to inhibit biofilm formation will be evaluated after 24 hr of growth on 1% BSA coated coverslips placed in flat-bottom polystyrene tissue culture plates by staining with FilmTracer LIVE/DEAD Biofilm viability kit (Invitrogen, L10316), and visualized using a confocal microscope and Z-stacked to construct 3D-images."}, "[5]": {"settings": "in vitro, FIG. 14A, read-out: half-life (converted)"}}, "note": "Bridge positions count the residues as written; N and C are the ends. Square brackets hold non-standard residues; d marks the D form. Peptide text beside a SMILES is read from it. Dap = NC[C@H](N)C(=O)O"}
{"compound": "CC[C@H](C)[C@H](NC(=O)[C@H](Cc1ccccc1)NC(=O)[C@H](CC(=O)O)NC(=O)[C@H](CCCNC(=N)N)NC(=O)[C@H](Cc1ccccc1)NC(=O)[C@H](Cc1ccccc1)NC(=O)[C@H](CCCCN)NC(=O)[C@H](CO)NC(=O)[C@H](CC(C)C)NC(=O)[C@H](CCCNC(=N)N)NC(=O)[C@H](CCSC)NC(=O)[C@@H](N)CCC(=O)O)C(=O)N[C@@H](CC(C)C)C(=O)N[C@@H](CCC(N)=O)C(=O)N[C@@H](CCCNC(=N)N)C(=O)N[C@@H](CCCCN)C(=O)N[C@@H](CCCCN)C(=O)O", "note": "[CSP1, reference compound]", "values": [{"measurement": "half-life", "setting": "[1]", "result": 1.5, "unit": "h"}]}
{"compound": "CC[C@H](C)[C@H](NC(=O)[C@H](CCCNC(=N)N)NC(=O)[C@H](CCSC)NC(=O)[C@H](C)N)C(=O)N[C@@H](CO)C(=O)N[C@@H](CCCNC(=N)N)C(=O)N[C@H](C(=O)N[C@H](C(=O)N[C@@H](CC(C)C)C(=O)N[C@H](CC(=O)O)C(=O)N[C@@H](Cc1ccccc1)C(=O)N[C@@H](CC(C)C)C(=O)N[C@@H](Cc1ccccc1)C(=O)N[C@@H](CC(C)C)C(=O)N[C@@H](CCCNC(=N)N)C(=O)N[C@@H](CCCCN)C(=O)N[C@@H](CCCCN)C(=O)O)[C@@H](C)CC)[C@@H](C)CC", "note": "[CSP2-E1Ad10, A-M-R-I-S-R-I-I-L-d-F-L-F-L-R-K-K] (H-AMRISRIIL[dD]FLFLRKK-OH; N-terminus and C-terminus assumed)", "values": [{"measurement": "half-life", "setting": "[1]", "result": "> 3", "unit": "h"}, {"measurement": "half-life", "setting": "[2]; [5]", "result": "> 3", "unit": "h"}]}
{"compound": "CC[C@H](C)[C@H](NC(=O)[C@H](CCCNC(=N)N)NC(=O)[C@H](CCSC)NC(=O)[C@@H](N)CCC(=O)O)C(=O)N[C@@H](CO)C(=O)N[C@@H](CCCNC(=N)N)C(=O)N[C@H](C(=O)N[C@H](C(=O)N[C@@H](CC(C)C)C(=O)N[C@H](CC(=O)O)C(=O)N[C@@H](Cc1ccccc1)C(=O)N[C@@H](CC(C)C)C(=O)N[C@@H](Cc1ccccc1)C(=O)N[C@@H](CC(C)C)C(=O)N[C@@H](CCCNC(=N)N)C(=O)N[C@@H](CCCCN)C(=O)N[C@@H](CCCCN)C(=O)O)[C@@H](C)CC)[C@@H](C)CC", "note": "[CSP2-d10, E-M-R-I-S-R-I-I-L-d-F-L-F-L-R-K-K] (H-EMRISRIIL[dD]FLFLRKK-OH; N-terminus and C-terminus assumed)", "values": [{"measurement": "half-life", "setting": "[1]", "result": 2.5, "unit": "h"}]}
{"compound": "CC[C@H](C)[C@H](NC(=O)[C@H](Cc1ccccc1)NC(=O)[C@@H]1CCC(=O)NC[C@H](NC(=O)[C@H](CO)NC(=O)[C@H](CC(C)C)NC(=O)[C@H](CCCNC(=N)N)NC(=O)[C@H](CCSC)NC(=O)[C@H](C)N)C(=O)N[C@@H](Cc2ccccc2)C(=O)N[C@@H](Cc2ccccc2)C(=O)N[C@@H](CCCNC(=N)N)C(=O)N1)C(=O)N[C@@H](CC(C)C)C(=O)N[C@@H](CCC(N)=O)C(=O)N[C@@H](CCCNC(=N)N)C(=O)N[C@@H](CCCCN)C(=O)N[C@@H](CCCCN)C(=O)O", "note": "[CSP1-E1A-cyc(Dap6E10), A-M-R-L-S-(Dap-F-F-R-E)-F-I-L-Q-R-K-K] (H-AMRLS[Dap]FFREFILQRKK-OH; lactam 6-10; N-terminus and C-terminus assumed)", "values": [{"measurement": "IC50", "setting": "[3]", "result": 182, "unit": "nM"}, {"measurement": "IC50", "setting": "[4]", "result": 75.8, "unit": "nM"}, {"measurement": "half-life", "setting": "[2]; counting active degradation product CSP1-E1A-des-K16K17-cyc(Dap6E10), read-out: effective half-life", "result": "> 4", "unit": "h"}]}
{"compound": "CC[C@H](C)[C@H](NC(=O)[C@H](Cc1ccccc1)NC(=O)[C@H](CC(=O)O)NC(=O)[C@H](CCCNC(=N)N)NC(=O)[C@H](Cc1ccccc1)NC(=O)[C@H](Cc1ccccc1)NC(=O)[C@H](CCCCN)NC(=O)[C@H](CO)NC(=O)[C@H](CC(C)C)NC(=O)[C@H](CCCNC(=N)N)NC(=O)[C@H](CCSC)NC(=O)[C@H](C)N)C(=O)N[C@@H](CC(C)C)C(=O)N[C@@H](CCC(N)=O)C(=O)N[C@@H](CCCNC(=N)N)C(=O)N[C@@H](CCCCN)C(=O)N[C@@H](CCCCN)C(=O)O", "note": "[CSP1-E1A, A-M-R-L-S-K-F-F-R-D-F-I-L-Q-R-K-K]", "values": [{"measurement": "IC50", "setting": "[3]", "result": "> 10000", "unit": "nM"}, {"measurement": "half-life", "setting": "[1]", "result": 1.5, "unit": "h"}, {"measurement": "half-life", "setting": "[2]; [5]", "result": 1.5, "unit": "h"}]}
{"compound": "CC[C@H](C)[C@H](NC(=O)[C@H](Cc1ccccc1)NC(=O)[C@@H]1CCC(=O)NCCCC[C@H](NC(=O)[C@H](CO)NC(=O)[C@H](CC(C)C)NC(=O)[C@H](CCCNC(=N)N)NC(=O)[C@H](CCSC)NC(=O)[C@@H](N)CCC(=O)O)C(=O)N[C@@H](Cc2ccccc2)C(=O)N[C@@H](Cc2ccccc2)C(=O)N[C@@H](CCCNC(=N)N)C(=O)N1)C(=O)N[C@@H](CC(C)C)C(=O)N[C@@H](CCC(N)=O)C(=O)N[C@@H](CCCNC(=N)N)C(=O)N[C@@H](CCCCN)C(=O)N[C@@H](CCCCN)C(=O)O", "note": "[CSP1-cyc(K6E10)]", "values": [{"measurement": "EC50", "setting": "[3]", "result": "> 1000", "unit": "nM"}, {"measurement": "EC50", "setting": "[4]", "result": 350, "unit": "nM"}]}
